tested on: potted young oranges (variety: Unshu); assay: Phytotoxicity of treating compound, Citrus Melanose test; conditions: 500 ppm

Structure (SMILES) | Phytotoxicity of Treating Compound
COc1cccc(N2C(=O)C(Cl)=C(Cl)C2=O)c1 [compound 8] | - (0%)
O=C1C(Cl)=C(Cl)C(=O)N1c1cccc(OC(F)F)c1 [compound 2, 2,3-dichloro-N-(m-difluoromethoxyphenyl)maleimide] | - (0%)

tested on: Alternaria kikuchiana; assay: Spore-germination Inhibiting Test; assay type: cell-based; conditions: 10 ppm, 27° C., 20 hours
Protocol: Spore-germination Inhibiting Test for Alternaria kukuchiana An apricot medium is inoculated with Alternaria kikuchiana and incubated at a temperature of 27° C. for 7-10 days to form conidia on the medium. […] 0.02 Ml of the prepared spore suspension containing the compound according to the present invention is dropped on a slide glass and incubated at a temperature of 27° C. under moist conditions for 20 hours. Thereafter, whether or not the spores germinate is examined under a microscope and the spore-germination rate is then calculated.

Structure (SMILES) | Spore-germination Rate (%)
COc1cccc(N2C(=O)C(Cl)=C(Cl)C2=O)c1 [compound 8] | 25
O=C1C(Cl)=C(Cl)C(=O)N1c1cccc(OC(F)F)c1 [compound 2, 2,3-dichloro-N-(m-difluoromethoxyphenyl)maleimide] | 0

tested on: potted young pears (variety: Niju-seiki); assay: Phytotoxicity of treating compound, Pear Black Spot test; conditions: 500 ppm, damaged area on leaves
Protocol: (§1) The resulting solution is sprayed on unfolded leaves of potted young pears (variety: Niju-seiki) in an amount corresponding to 600 l/10a per pot. After air-drying, the unfolded leaves are inoculated with Alternaria kikuchiana, by spraying a suspension of conidia thereof containing 30 conidia per microscopic field (magnification: X200).
(§2) After inoculation, the potted young pears are allowed to stand at a temperature of 27° C. in a moist room for one day and then transferred to a greenhouse. Six days after inoculation, the leaf area infested by pear black spot, i.e., the area of pathologic spots on a leaf is examined on 5 unfolded leaves per pot and an average infestation rate is then calculated.
*The phytotoxicity of the treating compound is evaluated according to the

Structure (SMILES) | Phytotoxicity of Treating Compound
CC(C)NC(=O)N1CC(=O)N(c2cc(Cl)cc(Cl)c2)C1=O [iprodione, 1-Isopropylcarbamoyl-3-(3',5'-dichlorophenyl)-hydantoin] | - (0%)
COc1cccc(N2C(=O)C(Cl)=C(Cl)C2=O)c1 [compound 8] | ± (1-5%)
O=C1C(Cl)=C(Cl)C(=O)N1c1cccc(OC(F)F)c1 [compound 2, 2,3-dichloro-N-(m-difluoromethoxyphenyl)maleimide] | ± (1-5%)

tested on: potted young oranges (variety: Unshu); assay: Phytotoxicity of treating compound, residual activity test; conditions: 1000 ppm, 23 mm/hr of rain

Structure (SMILES) | Phytotoxicity of Treating Compound
[Cu+2].[O-]c1cccc2cccnc12.[O-]c1cccc2cccnc12 [oxinecopper, 8-Hydroxyquinoline-Cu] | ± (1-5%)
COc1cccc(N2C(=O)C(Cl)=C(Cl)C2=O)c1 [compound 8] | - (0%)
O=C1C(Cl)=C(Cl)C(=O)N1c1cccc(OC(F)F)c1 [compound 2, 2,3-dichloro-N-(m-difluoromethoxyphenyl)maleimide] | ± (1-5%)

tested on: Diaporthe citri; assay: Citrus Melanose-controlling Test; assay type: in vivo; conditions: 500 ppm, 24 days after inoculation

Structure (SMILES) | Infested Leaves (%)
COc1cccc(N2C(=O)C(Cl)=C(Cl)C2=O)c1 [compound 8] | 10
O=C1C(Cl)=C(Cl)C(=O)N1c1cccc(OC(F)F)c1 [compound 2, 2,3-dichloro-N-(m-difluoromethoxyphenyl)maleimide] | 0.5

same assay, conditions: 500 ppm, 24 days; (Σnf/4N)×100

Structure (SMILES) | Infestation Rate
COc1cccc(N2C(=O)C(Cl)=C(Cl)C2=O)c1 [compound 8] | 3.3
O=C1C(Cl)=C(Cl)C(=O)N1c1cccc(OC(F)F)c1 [compound 2, 2,3-dichloro-N-(m-difluoromethoxyphenyl)maleimide] | 0.1

same assay, conditions: 500 ppm; index 0 = 0-25% infested area; 24 days

Structure (SMILES) | Number of Leaves Showing Infestation Index 0 [leaves]
COc1cccc(N2C(=O)C(Cl)=C(Cl)C2=O)c1 [compound 8] | 109
O=C1C(Cl)=C(Cl)C(=O)N1c1cccc(OC(F)F)c1 [compound 2, 2,3-dichloro-N-(m-difluoromethoxyphenyl)maleimide] | 210

same assay, conditions: 500 ppm; index 1 = 26-50% infested area; 24 days

Structure (SMILES) | Number of Leaves Showing Infestation Index 1 [leaves]
COc1cccc(N2C(=O)C(Cl)=C(Cl)C2=O)c1 [compound 8] | 14
O=C1C(Cl)=C(Cl)C(=O)N1c1cccc(OC(F)F)c1 [compound 2, 2,3-dichloro-N-(m-difluoromethoxyphenyl)maleimide] | 1

same assay, conditions: 500 ppm; index 2 = 51-75% infested area; 24 days

Structure (SMILES) | Number of Leaves Showing Infestation Index 2 [leaves]
COc1cccc(N2C(=O)C(Cl)=C(Cl)C2=O)c1 [compound 8] | 7
O=C1C(Cl)=C(Cl)C(=O)N1c1cccc(OC(F)F)c1 [compound 2, 2,3-dichloro-N-(m-difluoromethoxyphenyl)maleimide] | 0

same assay, conditions: 500 ppm; index 3 = 76-90% infested area; 24 days

Structure (SMILES) | Number of Leaves Showing Infestation Index 3 [leaves]
COc1cccc(N2C(=O)C(Cl)=C(Cl)C2=O)c1 [compound 8] | 1
O=C1C(Cl)=C(Cl)C(=O)N1c1cccc(OC(F)F)c1 [compound 2, 2,3-dichloro-N-(m-difluoromethoxyphenyl)maleimide] | 0

same assay, conditions: 500 ppm; index 4 = 91-100% infested area; 24 days

Structure (SMILES) | Number of Leaves Showing Infestation Index 4 [leaves]
COc1cccc(N2C(=O)C(Cl)=C(Cl)C2=O)c1 [compound 8] | 0
O=C1C(Cl)=C(Cl)C(=O)N1c1cccc(OC(F)F)c1 [compound 2, 2,3-dichloro-N-(m-difluoromethoxyphenyl)maleimide] | 0

tested on: Diaporthe citri; assay: Test of Residual Activity against Citrus Melanose; assay type: in vivo; conditions: 1000 ppm, 23 mm/hr of rain, 24 days after inoculation

Structure (SMILES) | Infested Leaves (%)
[Cu+2].[O-]c1cccc2cccnc12.[O-]c1cccc2cccnc12 [oxinecopper, 8-Hydroxyquinoline-Cu] | 81
COc1cccc(N2C(=O)C(Cl)=C(Cl)C2=O)c1 [compound 8] | 78
O=C1C(Cl)=C(Cl)C(=O)N1c1cccc(OC(F)F)c1 [compound 2, 2,3-dichloro-N-(m-difluoromethoxyphenyl)maleimide] | 2

same assay, conditions: 1000 ppm, 23 mm/hr of rain, 24 days; (Σnf/4N)×100

Structure (SMILES) | Infestation Rate
[Cu+2].[O-]c1cccc2cccnc12.[O-]c1cccc2cccnc12 [oxinecopper, 8-Hydroxyquinoline-Cu] | 26
COc1cccc(N2C(=O)C(Cl)=C(Cl)C2=O)c1 [compound 8] | 31
O=C1C(Cl)=C(Cl)C(=O)N1c1cccc(OC(F)F)c1 [compound 2, 2,3-dichloro-N-(m-difluoromethoxyphenyl)maleimide] | 0.5

same assay, conditions: 1000 ppm, 23 mm/hr of rain; index 0 = 0-25% infested area

Structure (SMILES) | Number of Leaves Showing Each Infestation Index: 0 [leaves]
[Cu+2].[O-]c1cccc2cccnc12.[O-]c1cccc2cccnc12 [oxinecopper, 8-Hydroxyquinoline-Cu] | 35
COc1cccc(N2C(=O)C(Cl)=C(Cl)C2=O)c1 [compound 8] | 35
O=C1C(Cl)=C(Cl)C(=O)N1c1cccc(OC(F)F)c1 [compound 2, 2,3-dichloro-N-(m-difluoromethoxyphenyl)maleimide] | 181

same assay, conditions: 1000 ppm, 23 mm/hr of rain; index 1 = 26-50% infested area

Structure (SMILES) | Number of Leaves Showing Each Infestation Index: 1 [leaves]
[Cu+2].[O-]c1cccc2cccnc12.[O-]c1cccc2cccnc12 [oxinecopper, 8-Hydroxyquinoline-Cu] | 113
COc1cccc(N2C(=O)C(Cl)=C(Cl)C2=O)c1 [compound 8] | 58
O=C1C(Cl)=C(Cl)C(=O)N1c1cccc(OC(F)F)c1 [compound 2, 2,3-dichloro-N-(m-difluoromethoxyphenyl)maleimide] | 4

same assay, conditions: 1000 ppm, 23 mm/hr of rain; index 2 = 51-75% infested area

Structure (SMILES) | Number of Leaves Showing Each Infestation Index: 2 [leaves]
[Cu+2].[O-]c1cccc2cccnc12.[O-]c1cccc2cccnc12 [oxinecopper, 8-Hydroxyquinoline-Cu] | 37
COc1cccc(N2C(=O)C(Cl)=C(Cl)C2=O)c1 [compound 8] | 61
O=C1C(Cl)=C(Cl)C(=O)N1c1cccc(OC(F)F)c1 [compound 2, 2,3-dichloro-N-(m-difluoromethoxyphenyl)maleimide] | 0

same assay, conditions: 1000 ppm, 23 mm/hr of rain; index 3 = 76-90% infested area

Structure (SMILES) | Number of Leaves Showing Each Infestation Index: 3 [leaves]
[Cu+2].[O-]c1cccc2cccnc12.[O-]c1cccc2cccnc12 [oxinecopper, 8-Hydroxyquinoline-Cu] | 2
COc1cccc(N2C(=O)C(Cl)=C(Cl)C2=O)c1 [compound 8] | 7
O=C1C(Cl)=C(Cl)C(=O)N1c1cccc(OC(F)F)c1 [compound 2, 2,3-dichloro-N-(m-difluoromethoxyphenyl)maleimide] | 0

same assay, conditions: 1000 ppm, 23 mm/hr of rain; index 4 = 91-100% infested area

Structure (SMILES) | Number of Leaves Showing Each Infestation Index: 4 [leaves]
[Cu+2].[O-]c1cccc2cccnc12.[O-]c1cccc2cccnc12 [oxinecopper, 8-Hydroxyquinoline-Cu] | 0
COc1cccc(N2C(=O)C(Cl)=C(Cl)C2=O)c1 [compound 8] | 0
O=C1C(Cl)=C(Cl)C(=O)N1c1cccc(OC(F)F)c1 [compound 2, 2,3-dichloro-N-(m-difluoromethoxyphenyl)maleimide] | 0

tested on: Alternaria kikuchiana; assay: Pear Black Spot-controlling Test; conditions: 500 ppm, six days after inoculation
Protocol: Pear Black Spot (Alternaria kikuchiana)-controlling Test
as §1, §2

Structure (SMILES) | Average Infestation Rate (%) (Based on infested area)
CC(C)NC(=O)N1CC(=O)N(c2cc(Cl)cc(Cl)c2)C1=O [iprodione, 1-Isopropylcarbamoyl-3-(3',5'-dichlorophenyl)-hydantoin] | 11
COc1cccc(N2C(=O)C(Cl)=C(Cl)C2=O)c1 [compound 8] | 20
O=C1C(Cl)=C(Cl)C(=O)N1c1cccc(OC(F)F)c1 [compound 2, 2,3-dichloro-N-(m-difluoromethoxyphenyl)maleimide] | 9
